Tested on: SARS-CoV-2
Experiment: microbe, parasite or virus in culture
Settings: Severe acute respiratory syndrome coronavirus 2, Vero C1008, 48 h

Compound	IC50 [µM]	IC50 (read-out: pIC50 (converted)) [µM]
O=C(Nc1ccc(C(=O)N2C[C@H]3COCCN3Cc3ccccc32)c(Cl)c1)c1ccccc1-c1ccccc1	> 20	> 20
Cc1ccc(Cc2cc3c(=O)n([C@H]4CCCC[C@@H]4O)cnc3c3ccccc23)cn1 [MK-7622]	> 20	> 20
C#CCC/C(O)=C(\C#N)C(=O)Nc1ccc(C(F)(F)F)cc1	> 20	> 20
O=C(Nc1ccc(C(=O)O)c(O)c1)c1ccccc1 [BENZOYLPAS]	> 20	> 20
C[C@@](Cc1ccc(O)c(O)c1)(NN)C(=O)O [CARBIDOPA ANHYDROUS]	> 20	> 20
OC(CNc1ccccn1)c1ccccc1 (configuration not stated) [PHENYRAMIDOL]	> 20	> 20
Cc1cccc(Cl)c1NC(=O)/C=C1\SCC(=O)N1C [RALITOLINE]	> 20	> 20
Oc1ccc([C@H]2COc3cc(O)ccc3C2)cc1 [AUS-131]	> 20	> 20
CCCOCCn1c(=O)c(N2CCN(CCO)CC2)nc2cnc(-c3ccc(OC)nc3)cc21 [PF-03049423]	> 20	> 20
CCN(CC)C(C)CN1c2ccccc2Sc2ccccc21 (configuration not stated) [ETHOPROPAZINE]	> 20	> 20
Nc1ncn([C@H]2C[C@H](O)[C@@H](CO)O2)c(=O)n1 [DECITABINE]	> 20	> 20
CC12CCC3C(CC=C4CC(OS(=O)(=O)O)CCC43C)C1CCC2=O (configuration not stated)	> 20	> 20
CNC(=C[N+](=O)[O-])NCCSCc1csc(CN(C)C)n1 [NIZATIDINE]	> 20	> 20
CC/C(=C(/CC)c1ccc(O)cc1)c1ccc(O)cc1 [DIETHYLSTILBESTROL]	> 20	> 20
CCN(CC)CCOC(=O)c1ccc(N)cc1 [PROCAINE]	> 20	> 20
CC(CNC(=O)c1cccnc1)NC(=O)c1cccnc1 (configuration not stated)	> 20	> 20
COc1cccc(OC)c1C(=O)N[C@@H]1C(=O)N2[C@@H]1SC(C)(C)[C@@H]2C(=O)O [METHICILLIN]	> 20	> 20
CC(=O)Nc1ccc(OC(C)(C)C)cc1 [BUTACETIN]	> 20	> 20
CC(=O)N[C@@H](CCC(N)=O)C(=O)O	> 20	> 20
CCOc1ccccc1O[C@H](c1ccccc1)[C@H]1CNCCO1	> 20	> 20
CC(=O)OCC(=O)[C@@]1(O)CC[C@H]2[C@@H]3CCC4=CC(=O)CC[C@]4(C)C3(F)[C@@H](O)C[C@@]21C (some centres not stated)	> 20	> 20
OC[C@@H](O)[C@H](O)[C@@H](O)CO [XYLITOL]	> 20	> 20

Compound	IC50 [µM]	IC50 (read-out: pIC50 (converted)) [µM]
NS(=O)(=O)c1cc2c(cc1Cl)NC(C1CC3C=CC1C3)NS2(=O)=O (configuration not stated) [CYCLOTHIAZIDE]	> 20	> 20
COCc1c(-c2cc3cc(C)cc(OC)c3s2)c2c(N)ncnn2c1CN1CCNC(=O)C1 [ROGARATINIB]	> 20	> 20
Nc1nc2c(ncn2COC(CO)CO)c(=O)[nH]1 [GANCICLOVIR]	> 20	> 20
C[C@@H]1CN([C@H]2CC[C@](C#N)(c3ccc(F)cc3)CC2)CC[C@]1(C(=O)O)c1ccccc1 [LEVOCABASTINE]	> 20	> 20
O=C1Nc2ccccc2/C1=C1/Nc2ccccc2C1=O [INDIRUBIN]	> 20	> 20
O=C(O)CCc1nc2ccccc2[nH]1 [PROCODAZOLE]	> 20	> 20
COc1c2ccoc2c(OC)c2oc(=O)ccc12 [ISOPIMPINELLIN]	> 20	> 20
CCC[C@@H]1CC(=O)N([C@@H](CC)C(N)=O)C1 [BRIVARACETAM]	> 20	> 20
CC(=O)N[C@H]1[C@H]([C@H](O)[C@H](O)CO)OC(C(=O)O)=C[C@@H]1NC(=N)N [ZANAMIVIR]	> 20	> 20
CCc1c(O)cc(O)c(C(=O)c2ccc(OCCN3CCOCC3)c(OC)c2)c1CC(=O)N(CCOC)CCOC [KW-2478 FREE BASE]	> 20	> 20
CC12CCC(CC1)C(C)(C)O2 [EUCALYPTOL]	> 20	> 20
CN1C(=O)CN=C(c2ccccc2F)c2cc([N+](=O)[O-])ccc21 [FLUNITRAZEPAM]	> 20	> 20
N#Cc1ccc(/C=N/NC(N)=S)s1 [CITENAZONE]	> 20	> 20
Cc1ccccc1-n1c(C)nc2ccccc2c1=O [METHAQUALONE]	> 20	> 20
Nc1nc(OCc2ccccc2)c2nc[nH]c2n1 [6-O-BENZYLGUANINE]	> 20	> 20
O=C1CCCN1CC1CCN(c2ccnc(C(F)(F)F)n2)CC1	> 20	> 20
CC(C)CCCC(C)C1CCC2C3C(=O)C=C4CC(O)CCC4(C)C3CCC12C (configuration not stated)	> 20	> 20
CCn1cc(C(=O)O)c(=O)c2cc(F)c(N3CCNCC3)cc21 [NORFLOXACIN]	> 20	> 20
CCCc1c2nc(C(=O)O)cc(NC)c2cc2c(=O)cc(C(=O)O)oc12 [MINOCROMIL]	> 20	> 20
O=C(O)CCCC/C=C(/c1ccccc1)c1cccnc1 [ISBOGREL]	> 20	> 20
C[C@H]1C[C@@H]2[C@H]([C@@H](O)C[C@@]3(C)[C@H]2CC[C@]3(O)C(=O)CO)[C@@]2(C)C=CC(=O)C=C12 [METHYLPREDNISOLONE]	> 20	> 20
O=C(OCCOCCO)c1ccccc1Nc1cccc(C(F)(F)F)c1 [ETOFENAMATE]	> 20	> 20

Compound	IC50 [µM]	IC50 (read-out: pIC50 (converted)) [µM]
c1ccc2c(c1)Sc1ccccc1N2CCN1CCCC1 [PYRATHIAZINE]	> 20	> 20
CN(C)CCOC(C)(c1ccccc1)c1ccccn1 (configuration not stated) [DOXYLAMINE]	> 20	> 20
CCN(CC)CCOC(=O)C(c1ccccc1)C1CCCCC1 (configuration not stated) [DROFENINE]	> 20	> 20
CCN(CC)CCSC(=O)N(c1ccccc1)c1ccccc1 [PHENCARBAMIDE]	> 20	> 20
CC12CCC3C(CCC4CC(O)CCC43C)C1CCC2=O (configuration not stated)	> 20	> 20
C[C@H](CSC(=O)c1ccccc1)C(=O)N1C[C@@H](Sc2ccccc2)C[C@H]1C(=O)O [ZOFENOPRIL]	> 20	> 20
CCN(CC)C(=S)SSC(=S)N(CC)CC	> 20	> 20
COCCO[C@@H]1c2ccn3c(C)c(C)nc3c2N[C@H](c2ccccc2)[C@H]1O [SORAPRAZAN]	> 20	> 20
C[C@H](Cn1cnc2c(N)ncnc21)OCP(=O)(O)O [TENOFOVIR ANHYDROUS]	> 20	> 20
O=C1C[C@@H](c2ccc(O)cc2)Oc2cc(O)cc(O)c21 [NARINGENIN]	> 20	> 20
O=P(O)(NCCCl)NCCCl [PALIFOSFAMIDE]	> 20	> 20
C/N=C(/NC#N)NCCSCc1csc(NC(=N)N)n1 [TIOTIDINE]	> 20	> 20
CC(C)(C)NC(=O)N[C@H](C(=O)N1C[C@H]2[C@@H]([C@H]1C(=O)NC(CC1CCC1)C(=O)C(N)=O)C2(C)C)C(C)(C)C (some centres not stated) [BOCEPREVIR]	> 20	> 20
CCC(C)(CN(C)C)OC(=O)c1ccccc1 (configuration not stated) [AMYLOCAINE]	> 20	> 20
CSc1ccc(C(=O)c2[nH]c(=O)[nH]c2C)cc1 [ENOXIMONE]	> 20	> 20
C=CCc1ccccc1OC[C@@H](O)CNC(C)C	> 20	> 20
CC(=O)NO [ACETOHYDROXAMIC ACID]	> 20	> 20
Cc1n[nH]c(=O)[nH]c1=O	> 20	> 20
Cc1ccccc1OCC(O)CNCCn1cc(C)c(=O)[nH]c1=O (configuration not stated) [PRIMIDOLOL]	> 20	> 20
O=C(O)c1cc(=O)c2ccccc2[nH]1 [TRANSTORINE]	> 20	> 20
COc1ccc2cccc(CCNC(C)=O)c2c1 [AGOMELATINE]	> 20	> 20
CC(C)Nc1ccc(Nc2ccccc2)cc1	> 20	> 20

— ChEMBL document CHEMBL4651402, “Screening of ~5500 FDA-approved drugs and clinical candidates for anti-SARS-CoV-2 activity” (2021)
